Measured values taken from US12171230B2, “Herbicidal compositions” (Bayer Aktiengesellschaft, priority 2018, dated 2024).
Several values for one entry are separate records, joined by “and”; a condition that tells them apart may be missing. Equal values may be shown once.

What was measured:
Type in all cases: in vivo
Veronica hederifolia = experiment: Post-emergence herbicidal action against Veronica hederifolia; conditions: 28 DAT; 450 g a.i./ha
Echinochloa crus-galli = experiment: Post-emergence herbicidal action against Echinochloa crus-galli; conditions: 21 DAT; 50 g a.i./ha
Procedure: (§1) When the observed efficacies exceed the formal sum total of the values of the tests with individual applications, they also exceed the expected value according to Colby, which is calculated using the formula below and is likewise regarded as an indication of synergism (cf. S. R. Colby; in Weeds 15 (1967) p. 20 to 22): E^C=A+B−([…])
(§2) Here: • A=efficacy of the active compound (A) in % at an application rate of a g a.i./ha; • B=efficacy of the active compound (B) in % at an application rate of b g a.i./ha; • E^C=expected value of the effect of the combination (A)+(B) in % at the combined application rate a+b g a.i./ha.
(§3) Seeds or rhizome pieces of mono- and dicotyledonous weeds are placed in sandy loam in pots, covered with soil and grown in a greenhouse under good growth conditions (temperature, air humidity, water supply). Three weeks after sowing, the test plants were treated at the three-leaf stage with the compositions according to the invention. The compositions according to the invention formulated as spray powders or as emulsion concentrates were sprayed onto the green plant parts in various dosages with an application rate of 300 to 800 l/ha of water (equivalent). After the test plants have been left to stand in the greenhouse under optimal growth conditions for about 3 to 4 weeks, the action of the preparations is scored visually in comparison to untreated controls. The compositions according to the invention also have good post-emergence herbicidal activity against a broad spectrum of economically important gramineous and broadleaf weeds.

Amaranthus palmeri = experiment: Post-emergence herbicidal action against Amaranthus palmeri; conditions: 21 DAT; (res.); 50 g a.i./ha
In short: (§4)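 Visual scoring against untreated controls, made 3 to 4 weeks after treatment, gives the % efficacy. Plants grown in pots of sandy loam were sprayed on green parts at the three-leaf stage with formulated compositions at 300 to 800 l/ha water. Combination efficacy above the Colby expected value indicates synergism.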

Poa annua = experiment: Post-emergence herbicidal action against Poa annua
In short: as §4

Bidens pilosa = experiment: Post-emergence herbicidal action against Bidens pilosa; conditions: 21 DAT
In short: as §4

Kochia scoparia = experiment: Post-emergence herbicidal action against Kochia scoparia; conditions: 21 DAT
Phalaris minor = experiment: Post-emergence herbicidal action against Phalaris minor
Centaurea cyano = experiment: Post-emergence herbicidal action against Centaurea cyano
In short: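 Greenhouse pot-grown plants sprayed post-emergence at the three-leaf stage, three weeks after sowing, with spray-powder or emulsion-concentrate formulations at various dosages in 300 to 800 l/ha water on green parts.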

Bromus sterilis = experiment: Post-emergence herbicidal action against Bromus sterilis
Polygonum convolvulus = experiment: Post-emergence herbicidal action against Polygonum convolvulus; conditions: 21 DAT; 50 g a.i./ha
Lolium rigidum = experiment: Post-emergence herbicidal action against Lolium rigidum
Alopecurus myosuroides = experiment: Post-emergence herbicidal action against Alopecurus myosuroides
Lamium purpureum = experiment: Post-emergence herbicidal action against Lamium purpureum
In short: as §4

Digitaria sanguinalis = experiment: Post-emergence herbicidal action against Digitaria sanguinalis; conditions: 21 DAT; 50 g a.i./ha
In short: as §4

Sorghum halepense = experiment: Post-emergence herbicidal action against Sorghum halepense; conditions: 21 DAT
Procedure: as §1, §2, §3

Matricaria inodora = experiment: Post-emergence herbicidal action against Matricaria inodora

`O=C(O)CNCP(=O)(O)O` [(B7.5) Glyphosate] gave a Herbicidal action (Veronica hederifolia) of 90%, a Herbicidal action (Echinochloa crus-galli) of 45% and a Herbicidal action (Amaranthus palmeri) of 60%. For the same molecule, the Herbicidal action (Poa annua; 14 DAT, 50 g a.i./ha) was 20%, the Herbicidal action (Poa annua; 28 DAT, 50 g a.i./ha) was 30% and the Herbicidal action (Poa annua; 28 DAT, 150 g a.i./ha) was 50% and 60%. It also gave a Herbicidal action (Poa annua; 28 DAT, 450 g a.i./ha) of 60%, a Herbicidal action (Bidens pilosa; 150 g a.i./ha) of 75% and a Herbicidal action (Bidens pilosa; 450 g a.i./ha) of 85%. For the same molecule, the Herbicidal action (Kochia scoparia; 50 g a.i./ha) was 35%, the Herbicidal action (Kochia scoparia; 150 g a.i./ha) was 20% and the Herbicidal action (Phalaris minor; 14 DAT, 50 g a.i./ha) was 30%. For the same molecule, the Herbicidal action (Phalaris minor; 14 DAT, 450 g a.i./ha) was 80%, the Herbicidal action (Phalaris minor; 28 DAT, 450 g a.i./ha) was 30% and the Herbicidal action (Centaurea cyano; 14 DAT, 50 g a.i./ha) was 30%. The Herbicidal action (Centaurea cyano; 14 DAT, 150 g a.i./ha) was 60%, the Herbicidal action (Centaurea cyano; 28 DAT, 50 g a.i./ha) was 30% and the Herbicidal action (Centaurea cyano; 28 DAT, 150 g a.i./ha) was 60%. The Herbicidal action (Centaurea cyano; 28 DAT, 450 g a.i./ha) was 85%, the Herbicidal action (Bromus sterilis; 14 DAT, 50 g a.i./ha) was 30% and the Herbicidal action (Bromus sterilis; 28 DAT, 150 g a.i./ha) was 40%. It also gave a Herbicidal action (Polygonum convolvulus) of 10%, a Herbicidal action (Lolium rigidum; 14 DAT, 50 g a.i./ha) of 40% and a Herbicidal action (Lolium rigidum; 14 DAT, resistant biotype, 50 g a.i./ha) of 20%. It also gave a Herbicidal action (Lolium rigidum; 28 DAT, 50 g a.i./ha) of 30%, a Herbicidal action (Lolium rigidum; 28 DAT, 150 g a.i./ha) of 60% and a Herbicidal action (Alopecurus myosuroides; 14 DAT, 50 g a.i./ha) of 30%. The Herbicidal action (Alopecurus myosuroides; 28 DAT, 50 g a.i./ha) was 10%, the Herbicidal action (Alopecurus myosuroides; 28 DAT, 150 g a.i./ha) was 30% and the Herbicidal action (Alopecurus myosuroides; 28 DAT, 450 g a.i./ha) was 60%. It also gave a Herbicidal action (Lamium purpureum; 14 DAT, 50 g a.i./ha) of 50%, a Herbicidal action (Lamium purpureum; 28 DAT, 50 g a.i./ha) of 30% and a Herbicidal action (Lamium purpureum; 28 DAT, 150 g a.i./ha) of 40%. The Herbicidal action (Lamium purpureum; 28 DAT, 450 g a.i./ha) was 75%, the Herbicidal action (Digitaria sanguinalis) was 80% and the Herbicidal action (Sorghum halepense; 50 g a.i./ha) was 30%. For the same molecule, the Herbicidal action (Sorghum halepense; 150 g a.i./ha) was 70%, the Herbicidal action (Sorghum halepense; 450 g a.i./ha) was 85% and the Herbicidal action (Matricaria inodora; 14 DAT, 50 g a.i./ha) was 40% and 50%. For the same molecule, the Herbicidal action (Matricaria inodora; 28 DAT, 450 g a.i./ha) was 80%.
